The values below are quoted from earlier work in PMC10011554, “BET inhibitor trotabresib in heavily pretreated patients with solid tumors and diffuse large B-cell lymphomas” (Nature Communications, 2023).

Where two headings read alike, the source gives them in different places.

The subject of series [1] is relapsed or refractory lymphomas. As to conditions: cited from earlier work.
The next series relates to U-2932 (DOX-R). On the set-up: method as in Report CC-90010-Pharm-1018. As to conditions: Table 2, ref Report CC-90010-Pharm-1018, read-out: absolute IC50, proliferation; cited from earlier work.
A further series has as its system WSU-DLCL2 (GCB DLBCL). The arrangement: method as in Report CC-90010-Pharm-1018. As to conditions: WSU-DLCL2, Table 2, ref Report CC-90010-Pharm-1018; read-out: absolute IC50, proliferation; cited from earlier work.
The subject of another series is WSU-DLCL2 (DOX-R). On the set-up: method as in Report CC-90010-Pharm-1018. As to conditions: Table 2, ref Report CC-90010-Pharm-1018, read-out: absolute IC50, proliferation; cited from earlier work.
The test system of another series is OCI-LY-10 (ABC DLBCL). The arrangement: method as in Report CC-90010-Pharm-1018. As to conditions: OCI-LY-10, Table 2, ref Report CC-90010-Pharm-1018; read-out: absolute IC50, proliferation; cited from earlier work.
Another series concerns SU-DHL-4 (DOX-R). The arrangement: method as in Report CC-90010-Pharm-1018. As to conditions: Table 2, ref Report CC-90010-Pharm-1018, read-out: absolute IC50, proliferation; cited from earlier work.
For another series, the system named is SU-DHL-4 (GCB DLBCL). On the set-up: method as in Report CC-90010-Pharm-1018. As to conditions: SU-DHL-4, Table 2, ref Report CC-90010-Pharm-1018; read-out: absolute IC50, proliferation; cited from earlier work.
In another series the test system is OCI-LY-10 (DOX-R). The arrangement: method as in Report CC-90010-Pharm-1018. As to conditions: Table 2, ref Report CC-90010-Pharm-1018, read-out: absolute IC50, proliferation; cited from earlier work.
In a further series the test system is U-2932 (ABC DLBCL). On the set-up: method as in Report CC-90010-Pharm-1018. As to conditions: U-2932, Table 2, ref Report CC-90010-Pharm-1018; read-out: absolute IC50, proliferation; cited from earlier work.
On the set-up of series [2]: method as in Amorim, 2016. As to conditions: ref Amorim, 2016; cited from earlier work.
The next series deals with GBM3 GBM PDX. The arrangement: method as in Unpublished data from Celgene Corporation. As to conditions: GBM3, TMZ 50 mg/kg IP x 3 Q2 weeks alone, ref Unpublished data from Celgene Corporation; cited from earlier work.
The next series concerns basal cell carcinoma. As to conditions: cited from earlier work.
The conditions of series [3]: cited from earlier work.
Where [4] appears, read: ref ODOMZO European Public Assessment Report.

Consider `Cc1noc2c1-c1ccccc1C(c1ccc(Cl)cc1)=N[C@H]2CC(N)=O` [CPI-0610], for which, in series [1] (out of 64 relapsed or refractory lymphomas, ref Blum, 2018), the objective responses was 5 patients.

Consider `COc1cccc2c1C(=O)c1c(O)c3c(c(O)c1C2=O)C[C@@](O)(C(=O)CO)C[C@@H]3O[C@H]1C[C@H](N)[C@H](O)[C@H](C)O1` [Doxorubicin, reference compound], for which the IC50 was 1870 nM with U-2932 (DOX-R); 10 nM in the series on WSU-DLCL2 (GCB DLBCL); 3270 nM in the series on WSU-DLCL2 (DOX-R); 41 nM with OCI-LY-10 (ABC DLBCL); 3570 nM in the series on SU-DHL-4 (DOX-R); roughly 10 nM in the series on SU-DHL-4 (GCB DLBCL). The IC50 in the series with OCI-LY-10 (DOX-R) is 3660 nM; in the series on U-2932 (ABC DLBCL), 20 nM.

On to `Cc1sc2c(c1C)C(c1ccc(Cl)cc1)=N[C@@H](CC(=O)Nc1ccc(O)cc1)c1nnc(C)n1-2` [OTX-015], for which, in [2], the “Grade 3-4 thrombocytopenia” value is recorded as 58%, the “median time to thrombocytopenia nadir (Grade 4) from starting treatment” value is on record as 18 days, the toxic effect anaemia is 91% and the toxic effect diarrhea is listed as 47%. In series [2], the toxic effect fatigue is recorded as 27%, the toxic effect nausea is reported as 24%, the toxic effect neutropenia is 51% and the toxic effect thrombocytopenia is given as 96%.

On to `Cc1sc2c(c1C)C(c1ccc(Cl)cc1)=N[C@@H](CC(=O)NCCCN1CCN(C)CC1)c1nnc(C)n1-2` [RG6146], for which the ORR in [1] (relapsed/refractory MYC-expressing DLBCL patients, ref Caimi, 2017) was 11%.

Take `Cn1nnc2c(C(N)=O)ncn2c1=O` [TMZ, temozolomide, reference compound]: in the series on GBM3 GBM PDX, the TGI was 3%.

With `Cc1c(C(=O)Nc2ccc(N3C[C@@H](C)O[C@@H](C)C3)nc2)cccc1-c1ccc(OC(F)(F)F)cc1` [sonidegib], in the series with basal cell carcinoma (locally advanced BCC, ref Migden, 2015a), the “independently reviewed response rate” value is reported as 58%. Moreover, in the series with basal cell carcinoma (ref Migden, 2015a), the “LaBCC with investigator-assessed responses lasting at least six months” value is 39%. In series [3] (setting [4]), the “subjects discontinued for adverse reactions” value is listed as 28% and the “subjects with dose adjustments for adverse reactions” value was 32%.

For the molecule `CS(=O)(=O)c1ccc(C(=O)Nc2ccc(Cl)c(-c3ccccn3)c2)c(Cl)c1` [vismodegib], the response rate with basal cell carcinoma (locally advanced BCC, ref ERIVEDGE European Public Assessment Report) was 42.9%. The “independently reviewed response rate” value in the series on basal cell carcinoma (metastatic BCC, ref ERIVEDGE European Public Assessment Report) is listed as 30.3%. The “median duration of response” value in the series with basal cell carcinoma (ref ERIVEDGE European Public Assessment Report) was 7.6 months. In series [3] (at least 12 months follow up, ref Bassett-Seguin, 2015), the “subjects who withdrew from treatment due to adverse events” value was 36%.
